Key:
Format in all cases: in vivo, mouse
[1] = tested on: microglial cells; assay: Subretinal adoptive transfer and clearance of CFSE-labeled microglial cells; conditions: 24 h after subretinal transfer into wildtype mice, co-injected TSP1 10 μg/ml
Experimental: Microglial cells were prepared from PBS-perfused mice. After dissociation of brain or retina with Neural Dissociation Kit Papain (miltenyi Biotech), 70 μm filtered cell suspensions were washed and resuspended in 75% isotonic Percoll (Percoll Plus, GE Healthcare), overlayed with 25% Percoll and PBS. Cells were centrifuged at 1000 g for 30 min at […]. The ring at the 75%/25% interface was collected, washed with PBS and centrifuged.
According to Levy et al., (EMBO Mol Med. 2015, 7:211-226), brain microglia of the indicated mouse strains were sorted as describe above, labeled in 10 μM CFSE (Life Technologies), washed and resuspended in PBS, 12000 cells (4 μL) were injected using glass microcapillaries (Eppendorf) and a microinjector in the subretinal space of anesthetized 10-14 weeks old wildtype mice. A hole was pierced with the glass capillary prior to the subretinal injection to avoid intra-ocular pressure increase and to allow retinal detachment with 4 μL of solution. The subretinal injection was verified by fundoscopy. In specific experiments, cells were co-injected with recombinant human TSP1 (10 μg/ml, R&D Systems), Eyes were enucleated after 24 hours, fixed in PFA 4% 30 minutes and labeled with DAPI. Eyes with hemorrhages were discarded. CFSE+cells in the subretinal space were quantified on flatmounts on the RPE side of the retina and on the apical side of the RPE.

[2] = tested on: subretinal IBA-1+ mononuclear monocytes; assay: Laser-induced subretinal inflammation in wildtype- and Tsp1-/- mice; conditions: wildtype- and Tsp1-/- mice, intravitreal at d3, d7; FIG. 3 statistics given for Tsp1-/- mice vs PBS
Experimental: (§1) Laser-coagulations were performed with a 532 nm ophtalmological laser mounted on an operating microscope (Vitra Laser, 532 nm, 450 mW, 50 ms, and 250 μm): Intravitreal injections of 2 μl of HTRA1 and/or TSP1 were performed using glass capillaries (Eppendorf) and a micro injector. The 2 μl injection solution contained 50 μg/ml TSP1 and HTRA1, corresponding to an intraocular concentration of 5 μg/ml of each protein assuming their dilution by approximately 1/10th in the intra-ocular volume. […] A volume of 2 μl of a 100 μM solution of either PBS, recombinant TSP1 (10 μg/ml), the 4NGG control peptide or the CD47-activating peptide PKT16 (200 μM) was injected at day 4 (when MP infiltration is maximal) and day 7 after the injury and evaluated subretinal inflammation on flatmounted RPE/choroidal flatmounts at day 10.
(§2) Eyes were enucleated, fixed in 4% PFA 30 minutes and sectioned at the limbus; the cornea and lens were discarded. […] Choroids and retinas were flatmounted and viewed with a fluorescence microscope DM5500B (Leica). IBA-1+ cells were counted on whole RPE/choroidal flatmounts and on the outer segment side of the retina. […]

[3] = tested on: subretinal IBA-1+ MPs; assay: Laser-injury model in Cx3cr1GFP/GFP mice; conditions: 2 μl intravitreal at day 4 and day 7, day 10, vs PBS or 4NGG
Experimental: as §1, §2

[4] = tested on: recruited monocyte-derived inflammatory macrophages (recMφ); assay: Thioglycollate-induced peritonitis; conditions: single intra-peritoneal injection at day 1, observed at day 2
Experimental: Mouse peritoneal exudate cells (PECs) were elicited by i.p. injection of 0,5 ml 3% thioglycollate (T9032, Sigma) into 10 weeks old male C57BL/6J and Cd47^−/− mice. After 1 day, PECs were isolated by flushing of the peritoneum with ice-cold PBS, Mφs were negatively selected by magnetic sorting following the manufacturers protocol (EasySep Mouse Monocyte Enrichment Kit, Stemcell Technologies), resuspended in X-VIVO 15 medium (Lonza), and plated in Lab-Tek® Chamber Slide™ (Nunc®).
To test whether CD47 influences inflammation resolution in other pathological contexts, a model of acute thioglycollate-induced peritonitis was used, characterized by an early accumulation of neutrophils, followed by recruited monocyte-derived inflammatory macrophages (recMφ), both experiencing an apoptosis-driven elimination at different kinetics (Gautier et al., Blood. 2013, 122:2714-2722).

## recombinant TSP1: recombinant human TSP1 (R&D Systems), natural ligand and agonist of CD47
[1]; CFSE+ Cd47-/- microglial cells
  elimination of Cd47-/- microglial cells: no effect
[1]; CFSE+ Tsp1-/- microglial cells
  elimination of Tsp1-/- microglial cells: reversed the phenotype
[1]; CFSE+ wildtype microglial cells
  elimination of wildtype microglial cells: very significantly accelerated the elimination
[2]
  reduction of laser-induced subretinal inflammation: significantly reduces
[3]
  elimination of subretinal IBA-1+ MPs adjacent to the laser impact: eliminated significantly more efficiently
[4]
  elimination of recMφs: significantly accelerated the elimination
